Results as given in BindingDB's records for doi:10.1016/j.bmc.2009.04.013 (Biocryst Pharmaceuticals, 2009).

The compounds below were run against T1, Coagulation factor VII (Homo sapiens, UniProt P08709) (assay: TF-FVIIa Enzyme Inhibition Assay). Conditions: 25 °C.
T1 sequence (P08709 whole entry): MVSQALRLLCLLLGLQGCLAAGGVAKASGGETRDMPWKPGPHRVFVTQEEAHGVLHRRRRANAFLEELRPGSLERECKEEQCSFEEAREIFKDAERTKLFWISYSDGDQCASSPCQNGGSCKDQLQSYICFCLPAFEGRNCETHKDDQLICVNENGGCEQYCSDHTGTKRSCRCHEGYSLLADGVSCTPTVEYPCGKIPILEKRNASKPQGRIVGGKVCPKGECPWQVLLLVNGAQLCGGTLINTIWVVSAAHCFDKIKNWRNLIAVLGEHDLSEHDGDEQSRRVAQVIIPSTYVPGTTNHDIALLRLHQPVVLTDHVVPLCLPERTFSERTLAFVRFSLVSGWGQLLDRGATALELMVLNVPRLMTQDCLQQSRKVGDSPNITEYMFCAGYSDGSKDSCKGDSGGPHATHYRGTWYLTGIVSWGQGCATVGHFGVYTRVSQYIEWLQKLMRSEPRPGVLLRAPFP
With `N=C(N)c1ccc(NC(=O)c2ccccc2-c2ccccc2C(=O)O)cc1` [substituted biphenyl derivative, 9] the IC50 was 5720 nM.

Same assay, conditions: pH 7.2; 23 °C
In the case of `CC(C)CNC(=O)c1ccc(-c2ccc(/C=C\CO)cc2C(=O)Nc2ccc(C(=N)N)cc2)c(C(=O)O)c1` [substituted biphenyl derivative, 36m], the IC50 is reported as 52 nM.

The compounds below were run against T2, Serine protease 1 (Bos taurus, UniProt P00760) (assay: TF-FVIIa Enzyme Inhibition Assay). Conditions: 25 °C.
T2 sequence (P00760 whole entry): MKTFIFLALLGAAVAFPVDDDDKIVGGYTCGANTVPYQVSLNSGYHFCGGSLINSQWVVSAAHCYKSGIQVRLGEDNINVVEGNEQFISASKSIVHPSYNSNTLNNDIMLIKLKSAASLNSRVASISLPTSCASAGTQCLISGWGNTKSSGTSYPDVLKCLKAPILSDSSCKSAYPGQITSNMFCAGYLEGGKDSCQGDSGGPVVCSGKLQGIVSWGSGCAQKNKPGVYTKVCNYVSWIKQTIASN
`CC(C)CNC(=O)c1ccc(-c2ccc(C#CCCO)cc2C(=O)Nc2ccc(C(=N)N)cc2)c(C(=O)O)c1` [substituted biphenyl derivative, 36q] gave an IC50 of 400 nM. For `CC(C)CNC(=O)c1ccc(-c2ccc(-c3cccnc3)cc2C(=O)Nc2ccc(C(=N)N)cc2)c(C(=O)O)c1` [substituted biphenyl derivative, 36y], the IC50 was 3020 nM. `CC(C)CNC(=O)c1ccc(-c2ccc(C(O)CO)cc2C(=O)Nc2ccc(C(=N)N)cc2)c(C(=O)O)c1` (stereo not drawn) [substituted biphenyl derivative, 36s] was tested, and the IC50 was 22100 nM. In the case of `CC(C)CNC(=O)c1ccc(-c2ccc(-c3cccs3)cc2C(=O)Nc2ccc(C(=N)N)cc2)c(C(=O)O)c1` [substituted biphenyl derivative, 36z], the IC50 is reported as 240 nM. For `C=Cc1ccc(-c2ccc(C(=O)NCC(C)C)cc2C(=O)O)c(C(=O)Nc2ccc(C(=N)N)cc2)c1` [substituted biphenyl derivative, 36b], the IC50 was 470 nM. `CC(C)CNC(=O)c1ccc(-c2ccc(-c3ccsc3CO)cc2C(=O)Nc2ccc(C(=N)N)cc2)c(C(=O)O)c1` [substituted biphenyl derivative, 36ai] was tested, and the IC50 was 3040 nM. With `C=C(C)c1ccc(-c2ccc(C(=O)NCC(C)C)cc2C(=O)O)c(C(=O)Nc2ccc(C(=N)N)cc2)c1` [substituted biphenyl derivative, 36g] the IC50 was 530 nM. `CC(C)CNC(=O)c1ccc(-c2ccc(-c3nccs3)cc2C(=O)Nc2ccc(C(=N)N)cc2)c(C(=O)O)c1` [substituted biphenyl derivative, 36af] gave an IC50 of 1470 nM. For `COc1ccc(-c2ccc(C(=O)NCC(C)C)cc2C(=O)O)c(C(=O)Nc2ccc(C(=N)N)cc2)c1` [substituted biphenyl derivative, 24], the IC50 was 820 nM. `CC(C)CNC(=O)c1ccc(-c2ccc(-c3ccco3)cc2C(=O)Nc2ccc(C(=N)N)cc2)c(C(=O)O)c1` [substituted biphenyl derivative, 36ab] showed an IC50 of 370 nM. With `C=C(CO)c1ccc(-c2ccc(C(=O)NCC(C)C)cc2C(=O)O)c(C(=O)Nc2ccc(C(=N)N)cc2)c1` [substituted biphenyl derivative, 36n] the IC50 was 3540 nM. `C=C=Cc1ccc(-c2ccc(C(=O)NCC(C)C)cc2C(=O)O)c(C(=O)Nc2ccc(C(=N)N)cc2)c1` [substituted biphenyl derivative, 36h] gave an IC50 of 560 nM. Work on `CC(C)CNC(=O)c1ccc(-c2ccc(-c3ccsc3)cc2C(=O)Nc2ccc(C(=N)N)cc2)c(C(=O)O)c1` [substituted biphenyl derivative, 36aa] yielded an IC50 of 380 nM. `CC(C)CNC(=O)c1ccc(-c2ccc(-c3cscc3CO)cc2C(=O)Nc2ccc(C(=N)N)cc2)c(C(=O)O)c1` [substituted biphenyl derivative, 36ak] gave an IC50 of 510 nM. In the case of `CC(C)CNC(=O)c1ccc(-c2ccc(-c3ccoc3)cc2C(=O)Nc2ccc(C(=N)N)cc2)c(C(=O)O)c1` [substituted biphenyl derivative, 36ac], the IC50 is reported as 470 nM. `CC(C)CNC(=O)c1ccc(-c2ccc(Cc3ccccc3)cc2C(=O)Nc2ccc(C(=N)N)cc2)c(C(=O)O)c1` [substituted biphenyl derivative, 36w] was tested, and the IC50 was 570 nM. In the case of `CCc1ccc(-c2ccc(C(=O)NCC(C)C)cc2C(=O)O)c(C(=O)Nc2ccc(C(=N)N)cc2)c1` [substituted biphenyl derivative, 36c], the IC50 is reported as 5990 nM. Work on `CC(C)CNC(=O)c1ccc(-c2ccc(-c3ccccc3)cc2C(=O)Nc2ccc(C(=N)N)cc2)c(C(=O)O)c1` [substituted biphenyl derivative, 36v] yielded an IC50 of 420 nM. Work on `CC(C)CNC(=O)c1ccc(-c2ccc(-c3ccc[nH]3)cc2C(=O)Nc2ccc(C(=N)N)cc2)c(C(=O)O)c1` [substituted biphenyl derivative, 36ad] yielded an IC50 of 430 nM. Work on `CC(C)CNC(=O)c1ccc(-c2ccc(-c3cccn3C)cc2C(=O)Nc2ccc(C(=N)N)cc2)c(C(=O)O)c1` [substituted biphenyl derivative, 36ae] yielded an IC50 of 410 nM. Compound `C#Cc1ccc(-c2ccc(C(=O)NCC(C)C)cc2C(=O)O)c(C(=O)Nc2ccc(C(=N)N)cc2)c1` [substituted biphenyl derivative, 36f] has an IC50 of 2870 nM. `CC(C)CNC(=O)c1ccc(-c2ccc(-c3ccoc3CO)cc2C(=O)Nc2ccc(C(=N)N)cc2)c(C(=O)O)c1` [substituted biphenyl derivative, 36ao] gave an IC50 of 740 nM. Work on `CC(C)CNC(=O)c1ccc(-c2ccc(Cc3cccs3)cc2C(=O)Nc2ccc(C(=N)N)cc2)c(C(=O)O)c1` [substituted biphenyl derivative, 36ag] yielded an IC50 of 1510 nM. Work on `CC(C)CNC(=O)c1ccc(-c2ccc(-c3ccncc3)cc2C(=O)Nc2ccc(C(=N)N)cc2)c(C(=O)O)c1` [substituted biphenyl derivative, 36x] yielded an IC50 of 1210 nM. Compound `CC(C)CNC(=O)c1ccc(-c2ccc(-c3cscc3CN=[N+]=[N-])cc2C(=O)Nc2ccc(C(=N)N)cc2)c(C(=O)O)c1` [substituted biphenyl derivative, 36am] has an IC50 of 1180 nM. `CC(C)CNC(=O)c1ccc(-c2ccc(-c3cscc3CN)cc2C(=O)Nc2ccc(C(=N)N)cc2)c(C(=O)O)c1` [substituted biphenyl derivative, 36an] gave an IC50 of 1770 nM. `CC(C)CNC(=O)c1ccc(-c2ccccc2C(=O)Nc2ccc(C(=N)N)cc2)c(C(=O)O)c1` gave an IC50 of 170 nM. In the case of `CC(C)=CCc1ccc(-c2ccc(C(=O)NCC(C)C)cc2C(=O)O)c(C(=O)Nc2ccc(C(=N)N)cc2)c1` [substituted biphenyl derivative, 36k], the IC50 is reported as 950 nM. For `CC(C)CNC(=O)c1ccc(-c2ccc(O)cc2C(=O)Nc2ccc(C(=N)N)cc2)c(C(=O)O)c1` [substituted biphenyl derivative, 36a], the IC50 was 390 nM. `C/C=C\Cc1ccc(-c2ccc(C(=O)NCC(C)C)cc2C(=O)O)c(C(=O)Nc2ccc(C(=N)N)cc2)c1` [substituted biphenyl derivative, 36j] showed an IC50 of 1340 nM. `CC(C)CNC(=O)c1ccc(-c2ccc(/C=C\CO)cc2C(=O)Nc2ccc(C(=N)N)cc2)c(C(=O)O)c1` [substituted biphenyl derivative, 36m] gave an IC50 of 1770 nM. For `CC#Cc1ccc(-c2ccc(C(=O)NCC(C)C)cc2C(=O)O)c(C(=O)Nc2ccc(C(=N)N)cc2)c1` [substituted biphenyl derivative, 36i], the IC50 was 1660 nM. `C=C(CCO)c1ccc(-c2ccc(C(=O)NCC(C)C)cc2C(=O)O)c(C(=O)Nc2ccc(C(=N)N)cc2)c1` [substituted biphenyl derivative, 36o] gave an IC50 of 2190 nM. `CC(C)CNC(=O)c1ccc(-c2ccc(-c3cocc3CO)cc2C(=O)Nc2ccc(C(=N)N)cc2)c(C(=O)O)c1` [substituted biphenyl derivative, 36ap] gave an IC50 of 2290 nM. Compound `CC(C)CNC(=O)c1ccc(-c2ccc(-c3sccc3CO)cc2C(=O)Nc2ccc(C(=N)N)cc2)c(C(=O)O)c1` [substituted biphenyl derivative, 36aj] has an IC50 of 4390 nM. `CC(C)CNC(=O)c1ccc(-c2ccc(-c3occc3CO)cc2C(=O)Nc2ccc(C(=N)N)cc2)c(C(=O)O)c1` [substituted biphenyl derivative, 36aq] showed an IC50 of 770 nM.
